Laboratory results: patent US20220204509A1, “PYRIMIDO FIVE-MEMBERED HETEROCYCLIC COMPOUND AND USE THEREOF AS MUTANT IDH2 INHIBITOR” (EPITAS BIOSCIENCES (SHANGHAI) CO., LTD., priority 2019, published 2022)
Positions count from the first letter of the chain named.

Columns and labels:
IDH2/WT = target: T1, IDH2/WT (Homo sapiens, UniProt P48735); assay: Determination of the selectivity of compounds to wild-type IDH2 (IDH2/WT); format: biochemical; conditions: Inhibitory activity on IDH2/WT; pre-incubated at 25° C. for 16 hours
T1 construct: made in house; host or cells: E. coli
T1 sequence (P48735 40-452): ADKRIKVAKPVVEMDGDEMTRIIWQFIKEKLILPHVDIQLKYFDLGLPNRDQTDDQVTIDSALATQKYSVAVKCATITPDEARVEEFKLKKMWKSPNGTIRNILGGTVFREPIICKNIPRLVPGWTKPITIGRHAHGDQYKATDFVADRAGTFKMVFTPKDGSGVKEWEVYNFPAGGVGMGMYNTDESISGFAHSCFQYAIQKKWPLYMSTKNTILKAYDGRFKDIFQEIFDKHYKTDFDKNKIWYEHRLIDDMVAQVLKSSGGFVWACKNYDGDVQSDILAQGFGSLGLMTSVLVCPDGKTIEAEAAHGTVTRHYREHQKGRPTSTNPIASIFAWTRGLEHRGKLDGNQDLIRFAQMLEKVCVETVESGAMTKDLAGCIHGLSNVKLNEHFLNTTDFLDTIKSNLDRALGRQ
Description: The compound was incubated with IDH2/WT and NADP, and then the reaction was initiated by adding isocitrate. After a certain time of reaction under linear conditions, lipoamide dehydrogenase and resazurin were added to detect the amount of fluorescent substances. In this experiment, NADP was reduced to NADPH. The latter reduced resazurin to highly fluorescent resorufin under the action of lipoamide dehydrogenase. The production of resorufin was detected to quantify the amount of cofactor NADPH generated after a specific reaction time, so as to calculate the compound's inhibitory effect on IDH2/WT.
Specifically, in a 96-well plate, in a total reaction volume of 50 μL, a mixture of 0.6 nM IDH2/WT, serially diluted inhibitors, and 50 μM NADP in a reaction buffer containing Tris-HCl 20 mM (pH 7.5), 150 mM NaCl, 10 mM MgCl2, 10% Glycerol, 0.03% BSA, and 2.5 mM β-mercaptoethanol, was pre-incubated at 25° C. for 16 hours. Isocitrate was added to 50 μM and the reaction was carried out at 25° C. for 30 minutes. Then 25 μL of a mixed solution (lipoamide dehydrogenase 36 μg/mL, resazurin 30 μM) prepared with the above reaction buffer was added to convert resazurin to resorufin to measure the NADPH produced. After 10 minutes of incubation at 25° C., the fluorescence value was measured by Tecan INFINITE F FLEX under Ex544/Em590. The enzyme activity was measured at 10 concentrations for each compound, and multiple background holes without enzyme and full enzyme activity holes without compound were set up in the reaction. The concentration of dimethyl sulfoxide in the system was less than or equal to 2%. The value of IC50 was obtained by the formula: Y=100/(1+10^((Log IC50−X)*HillSlope)) using XLFit5 software (IDBS Software). In the method, the multi-well plate was purchased from Thermo Fisher Scientific, NADP, α-KG, lipoamide dehydrogenase, and resazurin were purchased from Shenggong Bioengineering Co., Ltd., and IDH2/WT was obtained by purification after E. coli overexpression.

IDH2/R140Q [1] = target: T2, IDH2/R140Q (Homo sapiens, UniProt P48735, R140Q); assay: Inhibition of mutant IDH2 activity at the cell level (extracellular 2-HG, U87MG overexpressing IDH2/R140Q); format: cell-based
T2 sequence (P48735 40-452 R140Q): T1 sequence (P48735 40-452) with R101Q
Description: 2-hydroxyglutarate dehydrogenase (2HGDH) can reduce NAD+ to NADH in the presence of 2-HG. The latter can be quantitatively detected by diaphorase and its substrate Resazurin.
The glioma cells U87MG overexpressing IDH2/R140Q mutation were cultured in 1% sodium pyruvate high-sugar MEM, 10% FBS, and placed in a CO2 incubator (37° C., 5% CO2, 95% air) for cultivation.
The cells were digested with trypsin and seeded in a 96-well plate at a density of 1×10^4 with a medium of 200 μL and cultured in a 37° C. incubator overnight. The next day, the test compound was added to a final concentration of 0.1% for DMSO. […] The protein and other components in the medium that may interfere with the results were filtered, and the follow-up method was used to detect the content of 2-HG. 50 uL CellTiter-Glo (purchased from Promega) was added to the 96-well plate with the remaining 100 μL of medium to detect cell survival;
Extracellular 2-HG detecting system:
(1) 50 μL reaction system: reaction buffer (50 mM Tris pH7.5, 100 mM NaCl, 20 mM MgCl2, 0.05% BSA), in which the final concentration of NAD+ was 40 μM, the final concentration of 2HGDH was 20 nM, and the test sample was added to 5 μL of medium; the reaction solution was mixed and centrifuged, and the reaction was carried out for 1 hour at 25° C. in the dark;
Preparation of 2-HG standard curve: a 2-HG stock solution was diluted to 20 μM with reaction buffer, and a 2-fold gradient diluting was performed for a total of 6 points. Afterwards, the above-mentioned 2-HG was measured according to the extracellular 2-HG detecting system, and a standard curve was calculated and drawn.
Calculation of extracellular 2-HG content:
The fluorescence value obtained in the extracellular 2-HG detecting system was calculated using the 2-HG standard curve to calculate the content of 2-HG in the medium, and DMSO was used as a negative control to calculate the compound's inhibition against IDH2/R140Q mutation producing 2-HG activity.

IDH2/R140Q [2] = target: T2, IDH2/R140Q; assay: Determination of the inhibitory activity of the compounds on IDH2/R140Q (NADPH reduction, resazurin/lipoamide dehydrogenase detection); format: biochemical; set-up: purchased Abcam ab198153
Description: In this example, the inhibitory activity of a compound on IDH2/R140Q was determined by measuring the reduction of the cofactor NADPH. The compound was incubated with IDH2/R140Q and NADPH, and then the reaction was initiated by adding α-KG. After a certain time of reaction under linear conditions, lipoamide dehydrogenase and the corresponding substrate resazurin were added for detection. Lipoamide dehydrogenase terminated the IDH2/R140Q reaction bγ subtracting the available cofactor NADPH. It oxidized NADPH to NADP, and reduced resazurin to highly fluorescent resorufin. The production of resorufin was detected to quantify the amount of cofactor NADPH remaining after a specific reaction time.
Then 25 μL of a stop mixed solution (lipoamide dehydrogenase 36 μg/mL, resazurin 30 μM) prepared with the above reaction buffer was added to convert resazurin to resorufin to measure the remaining NADPH. After 10 minutes of incubation at 25° C., the fluorescence value was measured by Tecan […] […] The enzyme activity was measured at 10 concentrations for each compound, and multiple background holes without enzyme and full enzyme activity holes without compound were set up in the reaction. The concentration of dimethyl sulfoxide in the system was less than or equal to 2%. […] The multi-well plate in this example was purchased from Thermo Fisher Scientific, NADPH, α-KG, lipoamide dehydrogenase, and resazurin were purchased from Shenggong Bioengineering Co., Ltd., and IDH2/R140Q was purchased from Abcam (ab198153).

[3] = U87MG overexpressing IDH2/R140Q, 2-HG in medium after 24 hours of culturing with compound, read-out: IC50
[4] = IDH2/R140Q inhibitory activity, pre-incubated at 25° C. for 16 hours, read-out: IC50
[5] = IDH2/R140Q inhibitory activity, cells marked (1 h), read-out: IC50

| IC50 (IDH2/WT) [µM] | IC50 (IDH2/R140Q [1]; [3]) [µM] | IC50 (IDH2/R140Q [2]; [4]) [µM] | IC50 (IDH2/R140Q [2]; [5]) [µM] | Compound | IC50 (IDH2/R140Q [1]) [µM] | IC50 (IDH2/R140Q [2]) [µM] |
| --- | --- | --- | --- | --- | --- | --- |
| > 5 | 0.1 to 1 | 0.1 to 1 | – | Cc1cc2c(NC3CC3)nc(-c3ccccc3)nc2[nH]1 [Compound 23, N-cyclopropyl-6-methyl-2-phenyl-7H-pyrrolo[2,3-d]pyrimidin-4-amine] | – | – |
| – | 1 to 10 | > 10 | – | Cc1cc2c(Nc3ccnc(F)c3)nc(-c3ccccc3)nc2[nH]1 [Compound 21, N-(2-fluoropyridin-4-yl)-6-methyl-2-phenyl-7H-pyrrolo[2,3-d]pyrimidin-4-amine] | – | – |
| – | 1 to 10 | > 10 | – | Cc1cc2c(Nc3ccccc3)nc(Nc3ccccc3)nc2[nH]1 [Compound 22, 6-methyl-N2,N4-diphenyl-7H-pyrrolo[2,3-d]pyrimidine-2,4-diamine] | – | – |
| > 5 | 0.1 to 1 | < 0.1 | – | Cc1cc2c(NC3CCCC3)nc(-c3ccccc3)nc2[nH]1 [Compound 36, N-cyclopentyl-6-methyl-2-phenyl-7H-pyrrolo[2,3-d]pyrimidin-4-amine] | – | – |
| – | 0.1 to 1 | 0.1 to 1 | – | Cc1cc2c(NC(C)C)nc(-c3ccccc3)nc2[nH]1 [Compound 13, N-isopropyl-6-methyl-2-phenyl-7H-pyrrolo[2,3-d]pyrimidin-4-amine] | – | – |
| – | 1 to 10 | 1 to 10 | – | Cc1cc2c(-c3ccccc3)nc(Nc3ccccc3)nc2[nH]1 [Compound 7, 6-methyl-N,4-diphenyl-7H-pyrrolo[2,3-d]pyrimidin-2-amine] | – | – |

Continued, molecule first:

| Compound | IC50 (IDH2/WT) [µM] | IC50 (IDH2/R140Q [1]; [3]) [µM] | IC50 (IDH2/R140Q [2]; [4]) [µM] | IC50 (IDH2/R140Q [2]; [5]) [µM] | IC50 (IDH2/R140Q [1]) [µM] | IC50 (IDH2/R140Q [2]) [µM] |
| --- | --- | --- | --- | --- | --- | --- |
| CC(C)n1cnc2c(Nc3ccnc(C(F)(F)F)c3)nc(-c3ccccc3)nc21 [Compound 3, 9-isopropyl-2-phenyl-N-(2-(trifluoromethyl)pyridin-4-yl)-9H-purin-6-amine] | – | > 10 | – | > 10 | – | – |
| Cc1cc2c(NC3CCCC3)nc(-c3ccccc3F)nc2[nH]1 [Compound 51, N-cyclopentyl-2-(2-fluorophenyl)-6-methyl-7H-pyrrolo[2,3-d]pyrimidin-4-amine] | – | < 0.1 | < 0.1 | – | – | – |
| CC(C)n1cnc2c(Nc3ccnc(C(F)(F)F)c3)nc(-c3ccncc3)nc21 [Compound 9, 9-isopropyl-2-(pyridin-4-yl)-N-(2-(trifluoromethyl)pyridin-4-yl)-9H-purin-6-amine] | – | > 10 | – | > 10 | – | – |
| CC(C)(O)CNc1nc(Nc2ccnc(C(F)(F)F)c2)nc(-c2cccc(C(F)(F)F)n2)n1 [AG-221, Enasidenib, reference compound] | – | – | – | – | < 0.1 | < 0.1 |
| CC(C)n1cnc2c(Nc3ccnc(C(F)(F)F)c3)nc(-c3cccnc3)nc21 [Compound 5, 9-isopropyl-2-(pyridin-3-yl)-N-(2-(trifluoromethyl)pyridin-4-yl)-9H-purin-6-amine] | – | > 10 | – | > 10 | – | – |
| Cc1ccc(-c2nc(NC3CC3)c3cc(C)[nH]c3n2)cc1 [Compound 45, N-cyclopropyl-6-methyl-2-(p-tolyl)-7H-pyrrolo[2,3-d]pyrimidin-4-amine] | – | 1 to 10 | 1 to 10 | – | – | – |
| Cc1cc2c(NC3CCC3)nc(-c3ccccc3F)nc2[nH]1 [Compound 48, N-cyclobutyl-2-(2-fluorophenyl)-6-methyl-7H-pyrrolo[2,3-d]pyrimidin-4-amine] | – | < 0.1 | < 0.1 | – | – | – |
| Cc1cccc(-c2nc(NC3CC3)c3cc(C)[nH]c3n2)c1 [Compound 42, N-cyclopropyl-6-methyl-2-(m-tolyl)-7H-pyrrolo[2,3-d]pyrimidin-4-amine] | – | 0.1 to 1 | 0.1 to 1 | – | – | – |
| Cc1cc2c(NC(C)C)nc(-c3ccccn3)nc2[nH]1 [Compound 16, N-isopropyl-6-methyl-2-(pyridin-2-yl)-7H-pyrrolo[2,3-d]pyrimidin-4-amine] | – | 1 to 10 | > 10 | – | – | – |
| Cc1cc2c(NC3CC3)nc(-c3ccc(F)cc3)nc2[nH]1 [Compound 38, N-cyclopropyl-2-(4-fluorophenyl)-6-methyl-7H-pyrrolo[2,3-d]pyrimidin-4-amine] | – | 1 to 10 | 1 to 10 | – | – | – |
| Cc1cc2c(NC3CC3)nc(-c3cccc(F)c3)nc2[nH]1 [Compound 34, N-cyclopropyl-2-(3-fluorophenyl)-6-methyl-7H-pyrrolo[2,3-d]pyrimidin-4-amine] | – | 0.1 to 1 | 1 to 10 | – | – | – |
| CC(C)n1cnc2c(Nc3ccnc(C(F)(F)F)c3)nc(-c3ccccn3)nc21 [Compound 10, 9-isopropyl-2-(pyridin-2-yl)-N-(2-(trifluoromethyl)pyridin-4-yl)-9H-purin-6-amine] | – | > 10 | – | > 10 | – | – |
| Cc1cc2c(NC3CC3)nc(-c3ccccc3F)nc2[nH]1 [Compound 28, N-cyclopropyl-2-(2-fluorophenyl)-6-methyl-7H-pyrrolo[2,3-d]pyrimidin-4-amine] | > 5 | < 0.1 | 0.1 to 1 | – | – | – |
| Cc1cc2c(NC(C)C)nc(-c3ccccc3F)nc2[nH]1 [Compound 25, 2-(2-fluorophenyl)-N-isopropyl-6-methyl-7H-pyrrolo[2,3-d]pyrimidin-4-amine] | > 5 | 0.1 to 1 | 0.1 to 1 | – | – | – |
